Results: PubChem BioAssay (NCI)
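Cultured in 96-well plates, cells were exposed to test compound for 48 hours across five concentrations. The concentration for 50% growth inhibition is given as GI50. TGI is the concentration that stops growth completely.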

Tests used:
Assay in all cases: NCI-60 cell line screen, 48 h
[1] = system: SF-268 CNS
[2] = system: MOLT-4 leukemia
[3] = system: A549 NSCLC
[4] = system: KM12 colon
[5] = system: SK-MEL-5 melanoma
[6] = system: 786-0 renal
[7] = system: OVCAR-3 ovarian
[8] = system: UACC-62 melanoma
[9] = system: ACHN renal

SMILES	TGI [1] [µM]	TGI [2] [µM]	TGI [3] [µM]	TGI [4] [µM]	TGI [5] [µM]	TGI [6] [µM]	TGI [7] [µM]	TGI [8] [µM]	TGI [9] [µM]	GI50 [2] [µM]	GI50 [3] [µM]	GI50 [4] [µM]	GI50 [5] [µM]	GI50 [6] [µM]	GI50 [7] [µM]	GI50 [8] [µM]	GI50 [9] [µM]	GI50 [1] [µM]
C=CCNC(=O)N(CCCCC(NC(C)=O)C(=O)NCc1ccccc1)Cc1ccccc1 (centres undefined)	> 100	> 100	> 100	> 100	> 100	> 100	> 100	> 100	> 100									
O=C(O)C1=C(O)C(C(=O)O)C23CCCCCCCCCCC12C(C(=O)O)C(O)=C3C(=O)O (centres undefined)	> 100	> 100	> 100	> 100	> 100	> 100	> 100		> 100									
COC(=O)CC1C[C@H](C#N)N(C(=O)c2ccccc2)C[C@@H]1CC[N+](=O)[O-] (some centres undefined)	> 100	> 100	> 100	> 100	> 100	> 100	> 100	> 100	> 100									
CCN(CC)c1c(C(=O)/C=C/c2ccc(Cl)cc2)c(-c2ccccc2)nn(C)c1=O	3.4	5.06	3.89		3.2	3.5	4.35	3.31	3.38									
O=[N+]([O-])c1ccc(C[P+](c2ccccc2)(c2ccccc2)c2ccccc2)cc1		> 100	> 100	> 100	> 100	> 100	> 100	95.6	> 100									
Cc1cccc(/C=C/c2c(C(=O)/C=C/c3ccccc3)c(C)nc3ccccc23)c1		3.72	4.76	3.56	2.99	3.11	2.81	3.14	2.97	0.508	1.91	1.72	1.64	1.62	1.46	1.58	1.62	
CCOC(=O)C12CCCC1(O)N(NC(=O)OC(C)(C)C)C(C)=C2C(=O)OC (centres undefined)	> 100	> 100	> 100	> 100		> 100	> 100	> 100	> 100									
COC(=O)NC(=O)c1cn(C2OC(CO)C(O)C2O)c(=O)[nH]c1=O (centres undefined)	> 100	> 100	> 100	> 100		> 100	> 100	> 100	> 100									
CCOC(=O)c1nn2c(nc1=O)sc1ccc3ccccc3c12	> 100	> 100	> 100	> 100	> 100	> 100	> 100	> 100	> 100									
NC(=O)C(=O)N/N=C1\C(=O)N(c2ccc(Cl)cc2Cl)C(=O)C1C(=O)Nc1ccc(Cl)cc1Cl (centres undefined)	> 100	> 100	> 100	> 100	> 100	> 100	> 100	> 100	> 100									
O/N=C1/C(=C/c2ccc3c(c2)OCO3)CCCC1C(NO)c1ccc2c(c1)OCO2 (centres undefined)	> 100	42.5	95.4	43.6	32.3	96.3	30.6	39.8	> 100									
CN1CCC2(CC1)ONC1=NCCN12	> 100	> 100		> 100	> 100	53.8		> 100	74.5	23.6		26.6	59.8	15.4		31.2	23.7	37.2
O=C(O)CCN(CCCCN(CCC(=O)O)CCC(=O)O)CCC(=O)O	> 100	> 100	> 100	> 100	> 100	> 100	> 100	> 100	> 100									
CCCCCCCCCCCc1nnc(N)o1	> 100	> 100	> 100	> 100		> 100	> 100	> 100	> 100									
COc1ccc(/C=N/N=C(\N)NO)cc1O	> 100	> 100	> 100	> 100	> 100	55.7		> 100										
COc1cc(Br)c(C=Nc2cccc3cc(OC)c(OC)cc23)cc1OC	> 100	> 100	> 100	> 100	> 100	> 100	80.8	> 100	> 100									
CC1=C(C(=O)Nc2cc(=O)n(C)c(=O)n2C)C(c2ccco2)C(C(=O)Nc2cc(=O)n(C)c(=O)n2C)=C(C)N1	> 100	> 100	> 100	> 100	> 100	> 100	> 100		> 100									
COc1ccc(C23C(=O)c4ccccc4N2O[C@H]2C(=O)N(c4ccccc4)C(=O)[C@H]23)cc1 (some centres undefined)	> 100	> 100	> 100	> 100	> 100	> 100	> 100	> 100	> 100									
Cc1nnn[n-]1.N.N.N.N.N.[Cl-].[Co+3]	> 100	> 100	> 100	> 100	10.7	> 100	> 100	> 100	> 100	> 100	> 100	> 100	1.86	> 100	> 100	> 100	> 100	> 100
COC(=O)c1ccc(-c2nc3cc(Cl)c(Cl)cc3nc2C#N)cc1	> 100	> 100	> 100	> 100	> 100	> 100	> 100	> 100	> 100	> 100	> 100	> 100	> 100	> 100	> 100	> 100	> 100	> 100
O=C1CC(O)CC(=O)C1=C(O)CCCCCCCCCCc1ccccc1 (centres undefined)	> 100	> 100	> 100	> 100	> 100	> 100	> 100	> 100	> 100									
O=C(O)CCC(=O)N1c2ccccc2CC1c1c[nH]c2ccccc12 (centres undefined)	> 100	> 100	> 100	> 100	> 100	> 100	> 100	> 100	> 100									
O=C1N(C2CCCCC2)CC12CCCCC2	> 100	> 100	> 100		> 100	> 100		> 100	> 100									
CC1=C(c2ccccc2)C(c2ccccc2)=C(c2ccccc2)C2(c3ccccc3)C(=O)C(C)CN12 (centres undefined)	> 100	> 100	> 100	> 100	> 100	> 100	> 100	> 100	> 100									
N.N.N.N.N.NC(=O)c1nn[n-]n1.[Cl-].[Co+3]	> 100	> 100	> 100	> 100	> 100	> 100	> 100	> 100	> 100	> 100	> 100	> 100	> 100	> 100	> 100	> 100	> 100	> 100
CC1(C)O[C@H]2[C@H](O)C[C@](O)(CO)C[C@H]2O1		> 100	> 100	> 100	> 100	> 100	> 100	> 100	> 100									
O=C(COc1ccc(Cl)cc1)N1N=C(c2ccc(Cl)cc2)CC1(O)c1ccccc1 (centres undefined)	> 100	30.6	34.7	31.4	29.3	28.3	39.2	41.6	> 100									
CCCCCCCCNc1cc2c3c(c1)CCCN3CCC2	12.8	> 100	19.3	10.6	3.14	13.7	5.81	16.4	17.7	1.09	4.26	1.63	1.49	3.31	1.55	2.16	3.22	2.04
N.N.N.N.[Co+3].[N-]=[N+]=[N-].[N-]=[N+]=[N-].[N-]=[N+]=[N-]	> 100	> 100	> 100	> 100	> 100	> 100	> 100	> 100	> 100	36	> 100	> 100	> 100	> 100	> 100	85.2	52	47.4
CCc1ccccc1NC(=O)C1=C(C)NC(C)=C(C(=O)Nc2ccccc2CC)C1c1ccccc1Cl	> 100	> 100	> 100	> 100	> 100	> 100	> 100		> 100									
